We go through one compound from US10386360B2, “Bio-microelectromechanical system transducer and associated methods” (University of Central Florida Research Foundation, Inc., priority 2009, dated 2019).

“Also recorded” adds a separate entry of the source.

The series relates to contractile myotubes. The series can be described thus: Veratridine added to electrically stimulated myotubes on microcantilevers, AFM laser detection. In kind it is cell-based, rat. Also noted: dose or concentration left out as unconfirmed. The note with it: myotubes 10 days in culture, 1 Hz stimulus, veratridine final concentration. As to the method: Skeletal muscle was dissected from the hind limb thighs of a rat fetus at embryonic day 18 (Charles River Laboratories, Wilmington, Mass.) according to a previously published protocol with some modification. Tissue samples were collected in a sterile 15-ml centrifuge tube containing 1 ml of calcium and magnesium free phosphate buffered saline (PBS). Tissue samples were enzymatically disassociated using 3 ml of 0.05% of trypsin-EDTA (Invitrogen, Carlsbad, Calif.) solution for 60 min in a 37° C. water bath with agitation of 100 rpm. After 60 min, the trypsin solution was removed and 6 ml of L15 media (Invitrogen, Carlsbad, Calif.) containing 10% fetal bovine serum (FBS) was added to terminate the trypsin action. The tissue was then mechanically triturated using a sterile narrow bore Pasteur pipette, allowed to settle for 3 min, and transferred to a 15-ml centrifuge tube. This was repeated three times. The dissociated tissue was then centrifuged at 300 g for 10 minutes at 4° C. on 6 ml of a 4% (wt/vol) cushion of bovine serum albumin (BSA). The pellet was resuspended in 10 ml L15+10% FBS and plated in uncoated 100-mm Petri dishes for 20-30 min depending on the amount of tissue, to allow contaminating fibroblasts to settle out. After 20-30 minutes the supernatant was layered on 6 ml of a 4% BSA cushion, and centrifuged at 300 g for 10 min at 4° C. […]

As to `COc1ccc(C(=O)O[C@H]2CC[C@@]3(C)[C@@H]4CC[C@H]5[C@]6(O)C[C@H](O)[C@@]7(O)[C@@H](CN8C[C@@H](C)CC[C@H]8[C@@]7(C)O)[C@]6(O)C[C@@]53O[C@]24O)cc1OC` [veratridine], the “ability to contract after the initial tetanic contraction” value is given as “lost the ability to contract further; also recorded: lost the ability to further contract”.
